The values that follow come from patent US20180353501A1 (Arvinas, Inc., priority 2017, published 2018).

Holding throughout (test): Cellular assay of target protein degradation (MDA-MB-231 cells, ELISA)
Format in all cases: cell-based
Background: In an ELISA, binding on a coated surface is turned into a signal by an enzyme label.

One assay deals with T1, p38δ (Homo sapiens, UniProt O15264).
T1 construct: endogenous in cells; host or cells: MDA-MB-231 (intact cells for degradation; cleared cell lysate for CETSA)
T1 sequence (O15264 1-365): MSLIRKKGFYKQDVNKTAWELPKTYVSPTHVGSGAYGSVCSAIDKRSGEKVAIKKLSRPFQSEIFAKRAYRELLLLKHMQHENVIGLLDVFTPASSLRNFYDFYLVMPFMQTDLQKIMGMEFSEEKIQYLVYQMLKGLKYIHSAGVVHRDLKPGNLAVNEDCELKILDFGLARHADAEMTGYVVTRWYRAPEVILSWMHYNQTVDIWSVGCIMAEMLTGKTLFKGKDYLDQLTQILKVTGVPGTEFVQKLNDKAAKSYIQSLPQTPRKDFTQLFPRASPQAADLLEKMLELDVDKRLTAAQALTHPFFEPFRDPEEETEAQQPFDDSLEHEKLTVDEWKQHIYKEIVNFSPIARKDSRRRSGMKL
The following applies: for DC50: read-out: p38δDC50/nM [MDA-MB-231]. As for the experimental part: (§1) Protocol of the cellular assay of target protein degradation (MDA-MB-231 cells, ELISA).
(§2) For detection Cell Signaling PathScan Sandwich ELISA Catalog#12850 was used. MDA-MB-231 cells and […] were cultured in ATCC DMEM+ATCC FBS and plated 40,000/well 100 μl/well in RPMI P/S with 5% CSS Omega (bovine) serum into a 96 well plate. The cells were grown for a minimum of 3 days, dosed with compounds in 0.1% DMSO (diluted with 5% CSS) and incubated with aspiration for 4 hours. 100 μl of 1× Cell Signaling lysis buffer #9803 (36 mL dH2O+4 mL Cell Signaling lysis buffer) was added. The incubation was placed on cold room shaker for 10 minutes at speed 8-9.5 μl to 100 μL of Diluent was transferred to ELISA plate (0.15 μg/mL-0.075 μg/mL) and stored at 4° C. overnight on cold room shaker speed 5 (gentle swirl) and then shaken next morning at 37° C. for 30 minutes. The preparation was washed 4×200 μl with ELISA wash buffer and aspirated with eight-channel aspirator. 100 μl/well of target protein detection antibody was added after, which the preparation was covered and shaken at 37° C. for 1 hour. 100 μl TMB was added, and the mixture was shaken for 5 min while under observation. When TMB turned light blue, 100 μl of Stop solution was added, and the mixture was shaken and read at 450 nm. Also read at 562 nm for background subtraction.

The target in a further assay is T2, p38α (Homo sapiens, UniProt Q16539).
T2 construct: selectively degrades p38α, whereas exemplary PROTAC 46 (10-atom linker, phenyl attachment) selectively degrades p38δ in MDA-MB-231 cells; endogenous in cells; host or cells: MDA-MB-231
As for the experimental part:
as §1, §2

A further assay concerns the target T3, cMET (Homo sapiens, UniProt P08581).
T3 construct: endogenous in cells; host or cells: MDA-MB-231
As for the experimental part: as §1, §2

T3 sequence (P08581 25-1390): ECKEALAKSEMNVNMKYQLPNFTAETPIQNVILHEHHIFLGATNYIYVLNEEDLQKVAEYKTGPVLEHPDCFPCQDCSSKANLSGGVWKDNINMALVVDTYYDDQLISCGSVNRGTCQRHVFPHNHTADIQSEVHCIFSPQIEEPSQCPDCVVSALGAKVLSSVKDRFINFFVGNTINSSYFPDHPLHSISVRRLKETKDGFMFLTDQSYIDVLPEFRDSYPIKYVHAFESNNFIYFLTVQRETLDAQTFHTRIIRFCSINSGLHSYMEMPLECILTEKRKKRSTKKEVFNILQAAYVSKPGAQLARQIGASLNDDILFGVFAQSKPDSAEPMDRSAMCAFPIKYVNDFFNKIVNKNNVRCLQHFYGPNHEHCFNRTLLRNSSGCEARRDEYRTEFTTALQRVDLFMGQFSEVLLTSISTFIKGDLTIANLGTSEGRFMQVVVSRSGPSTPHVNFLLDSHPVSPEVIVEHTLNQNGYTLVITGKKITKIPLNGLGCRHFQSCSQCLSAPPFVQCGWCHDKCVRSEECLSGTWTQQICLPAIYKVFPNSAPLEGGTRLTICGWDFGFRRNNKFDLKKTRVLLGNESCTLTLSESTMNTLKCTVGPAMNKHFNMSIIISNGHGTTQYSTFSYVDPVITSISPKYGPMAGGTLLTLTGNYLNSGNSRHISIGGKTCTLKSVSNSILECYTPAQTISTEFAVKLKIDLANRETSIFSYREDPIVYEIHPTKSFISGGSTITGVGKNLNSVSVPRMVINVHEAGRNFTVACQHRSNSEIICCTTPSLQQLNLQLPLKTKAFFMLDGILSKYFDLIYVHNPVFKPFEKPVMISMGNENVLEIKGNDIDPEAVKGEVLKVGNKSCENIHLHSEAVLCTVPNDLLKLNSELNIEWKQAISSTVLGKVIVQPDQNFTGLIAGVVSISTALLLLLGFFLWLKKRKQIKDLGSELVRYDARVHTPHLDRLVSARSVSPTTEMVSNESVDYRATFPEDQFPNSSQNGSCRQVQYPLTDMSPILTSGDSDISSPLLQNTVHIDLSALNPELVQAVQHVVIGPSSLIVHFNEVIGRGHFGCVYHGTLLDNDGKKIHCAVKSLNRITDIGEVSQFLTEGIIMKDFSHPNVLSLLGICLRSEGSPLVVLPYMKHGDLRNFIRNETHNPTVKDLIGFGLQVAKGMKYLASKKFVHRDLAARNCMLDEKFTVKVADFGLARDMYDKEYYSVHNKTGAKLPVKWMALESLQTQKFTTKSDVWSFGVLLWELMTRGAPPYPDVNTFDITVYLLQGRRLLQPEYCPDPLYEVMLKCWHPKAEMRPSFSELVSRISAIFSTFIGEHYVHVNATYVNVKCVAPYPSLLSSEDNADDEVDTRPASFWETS
T2 sequence (Q16539 whole entry): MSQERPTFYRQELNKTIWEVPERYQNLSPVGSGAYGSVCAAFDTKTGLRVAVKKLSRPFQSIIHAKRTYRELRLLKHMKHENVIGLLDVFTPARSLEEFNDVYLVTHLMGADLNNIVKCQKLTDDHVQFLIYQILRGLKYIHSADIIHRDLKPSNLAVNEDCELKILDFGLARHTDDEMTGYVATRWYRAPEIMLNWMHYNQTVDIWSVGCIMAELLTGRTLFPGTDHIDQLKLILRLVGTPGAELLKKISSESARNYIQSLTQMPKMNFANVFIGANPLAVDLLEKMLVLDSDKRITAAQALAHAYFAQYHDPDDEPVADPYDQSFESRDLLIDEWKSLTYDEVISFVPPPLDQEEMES

As to `COc1cc2c(Oc3ccc(NC(=O)C4(C(=O)Nc5ccc(F)cc5)CC4)cc3F)ccnc2cc1OCCOCCOCCOc1cc(-c2scnc2C)ccc1CNC(=O)[C@@H]1C[C@@H](O)CN1C(=O)[C@H](C(C)C)N1Cc2ccccc2C1=O` [compound 46], at p38δ, the Dmax was found to be 93% and the DC50 was found to be 84.9 nM. On p38α, the DC50 is over 5000 nM and the Dmax came out at 33%.
For the compound `COc1cc2c(Oc3ccc(NC(=O)C4(C(=O)Nc5ccc(F)cc5)CC4)cc3F)ccnc2cc1OCCCCOCCCCOCC(=O)N[C@H](C(=O)N1C[C@H](O)C[C@H]1C(=O)NCc1ccc(-c2scnc2C)cc1)C(C)(C)C` [compound 50, N-(3-fluoro-4-((7-(4-(4-(2-(((S)-1-((2S,4R)-4-hydroxy-2-((4-(4-methylthiazol-5-yl)benzyl)carbamoyl)pyrrolidin-1-yl)-3,3-dimethyl-1-oxobutan-2-yl)amino)-2-oxoethoxy)butoxy)buto-xy)-6-methoxyquinolin-4-yl)oxy)phenyl)-N-(4-fluorophenyl)cyclopropane-1,1-dicarboxa-mide], the Dmax at p38δ turned out to be 18%; at cMET, 88%; at p38α, 99%. Further, the DC50 was over 5000 nM at p38δ, 36 nM at cMET and 9.5 nM on p38α.
With `COc1cc2c(Oc3ccc(NC(=O)C4(C(=O)Nc5ccc(F)cc5)CC4)cc3F)ccnc2cc1OCCCOCCCOCCC(=O)N[C@H](C(=O)N1C[C@H](O)C[C@H]1C(=O)NCc1ccc(-c2scnc2C)cc1)C(C)(C)C` [Example 1], the “c-Met protein degradation (dose response)” value at cMET (ELISA) is recorded as “significant targeted degradation”.

In general, Dmax refers to the largest share of the target that was removed. The low end stands for a partial loss of target, the high end for a fuller loss of target.
